{"source": "patent US10022365B2", "about": "(Jiangsu Hengrui Medicine Co., Ltd., priority 2009, dated 2018)", "system": "Ls-174t human colon cancer", "assay": "Antitumor therapeutic efficacy test in vivo", "design": "species or system BALB/cA-nude mice", "procedure": "[Antitumor Therapeutic Efficacy Test In Vivo]\nPreparation methods: The drug was diluted with saline solution to required concentration.\nExperimental animals: BALB/cA-nude mice, 6-7 weeks, ♀, purchased from Shanghai Slac Laboratory Animal Co., LTD. […] Environment: SPF level.\nAfter tumors grew to the 150-300 mm^3, mice were randomly divided into teams (d0). The volume of tumors and the weight of the mice were measured and recorded for 2-3 times per week. The tumor volume (V) was calculated by the follow equation: V=½×a×b^2 wherein a, b represent length and width respectively.", "note": "Structures can show the parent of a compound that is named as a salt.", "data": [{"smiles": "CCc1c2c(nc3ccc(OC(=O)N4CCC(N5CCCCC5)CC4)cc13)-c1cc3c(c(=O)n1C2)COC(=O)[C@]3(O)CC", "note": "[CPT-11, Irinotecan hydrochloride]", "values": [{"measurement": "growth of Ls-174t human colon cancer in nude mice", "result": "inhibited the growth of Ls-174t human colon cancer in nude mice significantly"}, {"measurement": "% T/C D12", "setting": "10 mg/kg, IV, D0, 3", "result": 45, "unit": "%"}, {"measurement": "Tumor inhibition rate (%) D12", "setting": "10 mg/kg, IV, D0, 3", "result": 55, "unit": "%"}, {"measurement": "Partial regression", "setting": "10 mg/kg, IV, D0, 3, number of animals", "result": 0}]}]}
